≈ marks a conversion by molar mass, not a printed value. Like-named read-outs stand apart in the source and are kept apart here.
Columns and labels:
[1] = cited from earlier work
in vivo = settings: beagle, dog, iv, 1 mg/kg
Description: An intravenous dose was included as the third formulation in the crossover design. […] The plasma concentrations, as determined by HPLC with fluorescence detection, were normalized to a 1 mg/kg dose. Pharmacokinetic parameters, including peak plasma concentration (Cmax), time to peak plasma concentration (Tmax), apparent elimination half life (t1/2), area under the curve (AUCoo) and the absolute bioavailability (F %) were determined.

physchem = assay type: physicochemical
Source text: Thus, dissolving the fused pyrrolocarbazole initially in this particular particle-forming composition achieves a better than 3.2-fold increase in fused pyrrolocarbazole concentration in the final solution. Because initial contact with an aqueous medium occurs in vitro or in vivo, the non-aqueous particle-forming compositions are useful for therapeutic administration of a fused pyrrolocarbazole to a mammal.

[2] = tested on: rat tumor model of prostate cancer; assay: Rat tumor model of prostate cancer; assay type: in vivo
[3] = Bioavailability in monkeys (plasma pharmacokinetics, HPLC); assay type: in vivo; settings: cynomolgus monkey
Description: Pharmacokinetic parameters were measured following intravenous (i.v.) administration and oral (p.o.) administration. The test composition consisted of four male cynomolgus monkeys. The i.v. dose was administered as a bolus, at a dosage level of 3 mg/kg. The oral doses were administered as soft gelatin capsules, at a dosage level of 10 mg/kg (2 capsules/monkey/dose). The oral formulations were as described in Table 6, below.
Blood samples were collected at predetermined time points. […] Pharmacokinetic parameters were estimated by non-compartmental methods. In Table 7, Cmax is peak plasma concentration; Tmax is time to peak plasma concentration; Tt/2 is apparent elimination half-life; AUC is area under the curve; and F % is absolute bioavailability.

COC(=O)[C@@]1(O)C[C@H]2O[C@]1(C)n1c3ccccc3c3c4c(c5c6ccccc6n2c5c31)C(=O)NC4 [Compound K-252a, K-252a]
solubility in water [1]: insoluble

C[C@]12O[C@H](C[C@]1(O)C(=O)O)n1c3ccccc3c3c4c(c5c6ccccc6n2c5c31)CNC4=O [Compound K-252b, K-252b]
solubility in water [1]: insoluble

CC12OC(CC1(O)CO)n1c3ccccc3c3c4c(c5c6ccccc6n2c5c31)CNC4=O (stereo not shown) [Compound IIa-12]
clearance (in vivo): 13.2 mL/min/kg | half-life (in vivo): 1.16 h | Vd (in vivo; apparent volume of distribution Vc): 0.96 L/kg | Vd (in vivo; apparent volume of distribution Vβ): 1.35 L/kg | solubility in water (physchem): essentially no solubility | solubility (physchem; aqueous with cosolvent or surfactant or cyclodextrin, kinetic from dmso stock): 570 µg/mL (≈ 1300 µM) | solubility (physchem; aqueous with cosolvent or surfactant or cyclodextrin, thermodynamic from solid): 180 µg/mL (≈ 410 µM) | solubility (physchem; organic solvent or mixture): 28400 µg/mL (≈ 64700 µM) | anticancer activity [2]: anticancer activity

C[C@@H]1O[C@@H](n2c3ccccc3c3c4c(c5c6ccccc6[nH]c5c32)CNC4=O)[C@H](O)[C@H](O)[C@H]1O [Compound K-252d, K-252d]
solubility in water [1]: insoluble

CCSCc1ccc2c(c1)c1c3c(c4c5cc(CSCC)ccc5n5c4c1n2C1CC(O)(C(=O)OC)C5(C)O1)CNC3=O (stereo not shown) [Compound IIa-51]
Tt/2 ([3]; i.v. bolus 3 mg/kg, PEG 1450:Pluronic F68:hydroxypropyl-β-cyclodextrin:water): 3.0 h | AUC(0-t) ([3]; male, plasma, iv, i.v. bolus 3 mg/kg, PEG 1450:Pluronic F68:hydroxypropyl-β-cyclodextrin:water, read-out: AUC0-4): 2500 ± 348 ng·h/mL | clearance ([3]; male, plasma, iv, i.v. dose 3 mg/kg): 18.3 mL/min/kg | Vd ([3]; male, plasma, iv, i.v. dose 3 mg/kg, read-out: mean volume of distribution): 4.9 ± 0.7 L/kg
